# Laboratory results taken from patent publication US20090191571A1 (priority 2005, published 2009).
# Biological target: PrP^Sc (Mus musculus, UniProt P04925)
# Sequence (P04925 23-230 limits assumed): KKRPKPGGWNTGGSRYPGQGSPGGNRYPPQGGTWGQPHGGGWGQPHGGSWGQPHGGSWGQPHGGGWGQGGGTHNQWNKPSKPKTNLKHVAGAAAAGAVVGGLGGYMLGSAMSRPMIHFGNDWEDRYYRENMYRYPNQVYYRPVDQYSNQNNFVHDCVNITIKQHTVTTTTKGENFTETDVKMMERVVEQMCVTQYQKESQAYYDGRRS
substance,measurement,value
(GGG)KKRPKPGG [SEQ ID NO:68],"binding to PrP^Sc, Western blotting (FIG. 4, lane 5)",strong binding
